According to patent US20080004282A1, “Compositions and methods for modulating gated ion channels” (PainCeptor Pharma Corporation, priority 2006, published 2008):

These compounds were tested against T1, ASIC1a (Homo sapiens, UniProt P78348) (assay: Two-electrode voltage clamp of acid-induced currents in Xenopus laevis oocytes). Details: 50 μM, Xenopus oocytes; read-out: % inh. at 50 μM (Xo).
T1 sequence (P78348 1-528): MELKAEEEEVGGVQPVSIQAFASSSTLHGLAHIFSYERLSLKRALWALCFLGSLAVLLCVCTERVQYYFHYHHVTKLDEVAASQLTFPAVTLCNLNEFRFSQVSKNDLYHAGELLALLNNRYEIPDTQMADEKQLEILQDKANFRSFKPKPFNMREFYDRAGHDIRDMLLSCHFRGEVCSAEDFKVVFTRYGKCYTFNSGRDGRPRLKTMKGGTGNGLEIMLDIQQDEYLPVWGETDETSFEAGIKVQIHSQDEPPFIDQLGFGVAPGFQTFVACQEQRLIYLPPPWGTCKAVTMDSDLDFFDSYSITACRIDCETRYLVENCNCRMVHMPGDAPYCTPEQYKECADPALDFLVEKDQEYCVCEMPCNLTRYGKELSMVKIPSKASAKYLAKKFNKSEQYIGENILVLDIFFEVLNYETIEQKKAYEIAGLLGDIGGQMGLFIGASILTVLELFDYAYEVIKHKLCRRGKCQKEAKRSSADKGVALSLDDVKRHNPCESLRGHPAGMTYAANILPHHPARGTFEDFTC
Type: cell-based
Parameters: expressed in transfected cells; host or cells: Xenopus laevis oocytes, nuclear microinjection of an expression vector such as pCDNA3
Description: Screening and Bioanalysis of ASIC Antagonists in Xenopus laevis oocytes
This example describes the in vitro assessment of the activity of the compounds of the present invention.
Two-electrode voltage clamp electrophysiological assays in Xenopus laevis oocytes expressing gated ion channels are performed as follows:
Oocytes are surgically removed from adult Xenopus laevis and treated for 2 h at room temperature with 1 mg/ml type I collagenase (Sigma) in Barth's solution under mild agitation. Selected oocytes at stage IV-V are defolliculated manually before nuclear microinjection of 2.5-5 ng of a suitable expression vector, such as pCDNA3, comprising the nucleotide sequence encoding a gated ion channel subunit protein. In such an experiment, the oocytes express homomultimeric proton-gated ion channels on their surface. In an alternate experiment, one, two, three or more vectors comprising the coding sequences for distinct gated ion channel subunits are co-injected in the oocyte nuclei. In the latter case, oocytes express heteromultimeric proton-gated ion channels. For example, ASIC2a and/or ASIC3 subunits in pcDNA3 vector are co-injected at a 1:1 cDNA ratio. After 2-4 days of expression at 19° C. in Barth's solution containing […] gentamicin and 1.8 mM CaCl2, gated ion channels are activated by applying an acidic solution (pH<7) and currents are recorded in a two electrode voltage-clamp configuration, using an OC-725B amplifier (Warner Instruments). Currents are acquired and digitized at 500 Hz on an Apple Imac G3 computer with an A/D NB-MIO-16XL interface (National Instruments) and recorded traces are post-filtered at 100 Hz in Axograph (Axon Instruments) (Neher, E. and Sakmann, B. (1976) Nature 260:799-802). Once impaled with the microelectrodes, oocytes are continuously superfused at 10-12 ml/min with a modified Ringer's solution containing 97 mM NaCl, 2 mM KCl, 1.8 mM CaCl2, and 10 mM HEPES brought to pH 7.4 with NaOH (Control Ringer). Test Ringer solution is prepared by replacing HEPES with MES and adjusting the pH to the desired acidic value. Compounds of the present invention are prepared in both the Control and Test Ringer solutions and applied to oocytes at room temperature through a computer-controlled switching valve system. Osmolarity of all solutions is adjusted to 235 mOsm with choline chloride. Similarly, recordings can also be acquired in an automated multichannel oocytes system as the OpusExpress™ (Molecular Devices, Sunnyvale, USA).
FIGS. 1A and 2A illustrate the inhibitory effects of Compounds 12 and 44 on acid-induced activation of recombinant homomeric hASIC1a channels. FIGS. 1A and 2A show the dose-dependent inhibition of the acid-induced hASIC1a currents recorded from Xenopus laevis oocytes using the two-electrode voltage clamp method (as described in this example) in the absence or presence of increasing concentration of the compounds.

| SMILES | inhibition at 50 µM |
| --- | --- |
| CCN1CCc2c(-c3cc(F)ccc3OC)ccc(NC(N)=O)c2C1 [Compound 23] | 20 to 30% |
| CCN1CCc2c(-c3ccccc3)cc(C#N)c(N(S(C)(=O)=O)S(C)(=O)=O)c2C1 [Compound 56] | < 20% |
| CCN1CCc2c(-c3cc(C)ccc3C)cc(C#N)c(N)c2C1 [Compound 47] | > 40% |
| CCN1CCc2c(-c3cc(F)ccc3OC)ccc(NC)c2C1 [Compound 34] | > 40% |
| CCN1CCc2c(-c3ccccc3)cc(C#N)c(Cl)c2C1 [Compound 52] | 25 to 35% |
| CCN1CCc2c(-c3ccccc3)cc(C#N)c(-c3cnn(C)c3)c2C1 [Compound 62] | > 30% |
| CCN1CCc2c(-c3ccccc3)cc(C#N)c(NC(=O)C(=O)OC)c2C1 [Compound 57] | < 20% |
| CCN1CCc2c(-c3ccccc3)cc(C#N)c(-n3cccc3)c2C1 [Compound 59] | > 50% |
| CCN1CCc2c(-c3ccccc3)cc(C#N)c(Br)c2C1 [Compound 61] | > 30% |
| CCOC(=O)CNC(=O)Nc1ccc(-c2cc(F)ccc2OC)c2c1CN(CC)CC2 [Compound 24] | 20 to 30% |
| CCN1CCc2c(-c3ccccc3)cc(Br)c(N)c2C1 [Compound 46] | > 40% |
| N#Cc1cc(-c2ccccc2)c2ccncc2c1N [Compound 30] | 20 to 30% |
| CCN1CCc2c(-c3ccccc3)cc(-c3cnn(C)c3N)c(N)c2C1 [Compound 38] | > 30% |
| CCN1CCc2c(-c3ccccc3)cc(/C(N)=N/O)c(N)c2C1 [Compound 33] | > 30% |
| CCN1CCc2c(-c3ccccc3)cc(-c3ccccn3)c(N)c2C1 [Compound 36] | < 20% |
| Cc1cc2c(N)c(C#N)cc(-c3ccccc3)c2cn1 [Compound 31] | > 30% |
| CCN1CCc2c(cc(C#N)cc2-c2ccccc2)C1 [Compound 41] | > 30% |
| CC(=O)N1CCc2c(-c3ccccc3)cc(C#N)c(N)c2C1 [Compound 29] | 20 to 30% |
| CCN1CCc2c(-c3ccccc3)cc(C#N)c(NC(C)=O)c2C1 [Compound 8, N-(7-Cyano-2-ethyl-5-phenyl-1,2,3,4-tetrahydro-isoquinolin-8-yl)-acetamide] | 20 to 30% |
| CCN1CCc2c(-c3ccccc3)cc(C#N)c(NC(=O)CC(=O)OC)c2C1 [Compound 14, N-(7-Cyano-2-ethyl-5-phenyl-1,2,3,4-tetrahydro-isoquinolin-8-yl)-malonamic acid methyl ester] | 20 to 30% |
| CCN1CCc2c(-c3ccncc3)cc(C#N)c(N)c2C1 [Compound 55] | < 20% |

| SMILES | inhibition at 50 µM |
| --- | --- |
| Cc1cc2c(N)c(-c3ccccc3)cc(C#N)c2cn1 [Compound 32] | > 30% |
| CCN1CCc2c(-c3cc(F)ccc3OC)ccc(NCC(=O)OC)c2C1 [Compound 2, [2-Ethyl-5-(5-fluoro-2-methoxy-phenyl)-1,2,3,4-tetrahydro-isoquinolin-8-ylamino]-acetic acid methyl ester] | < 20% |
| CCN1CCc2c(-c3ccccc3)cc(-c3cnccn3)c(N)c2C1 [Compound 37] | > 30% |
| CCN1CCc2c(-c3ccccc3)cc(C#N)c(N3CCCC3)c2C1 [Compound 53] | > 40% |
| CCN1CCc2c(-c3ccccc3)cc(Br)c(N(C)C)c2C1 [Compound 49] | 20 to 30% |
| CCN1CCc2c(-c3ccccc3)cc(C#N)c(-c3cccnc3)c2C1 [Compound 60] | 45 to 55% |
| CCN1CCc2c(-c3ccccc3)cc(C#N)c(N3C(=O)CCC3=O)c2C1 [Compound 58] | 20 to 30% |
| CCN1CCc2c(-c3ccccc3)cc(-c3cccc(C)n3)c(N)c2C1 [Compound 40] | > 30% |
| CCN1CCc2c(-c3ccccc3)ccc(N)c2C1 [Compound 35] | 20 to 30% |
| CCN1CCc2c(cc(N3C(=O)CNC3=O)cc2-c2cc(F)ccc2OC)C1 [Compound 28] | 20 to 30% |
| CCN1CCc2c(-c3ccccc3)cc(C#N)c(O)c2C1 [Compound 42] | 20 to 30% |
| CCN1CCc2c(-c3cc(F)ccc3OC)ccc(N3CC(=O)NC3=O)c2C1 [Compound 25] | > 40% |
| CCN1CCc2c(-c3cc(F)ccc3OC)ccc(NC=O)c2C1 [Compound 27] | < 20% |
| CCN1CCc2c(-c3ccccc3)cc(C#N)c([N+](=O)[O-])c2C1 [Compound 51] | 20 to 30% |
| CCN1CCc2c(-c3ccccc3)cc(C#N)c(NS(C)(=O)=O)c2C1 [Compound 9, N-(7-Cyano-2-ethyl-5-phenyl-1,2,3,4-tetrahydro-isoquinolin-8-yl)-methanesulfonamide] | 15 to 25% |
| CCN1CCc2c(-c3cc(F)ccc3OC)ccc(NC(=O)NC(=O)N3C(=O)CN(c4ccc(-c5cc(F)ccc5OC)c5c4CN(CC)CC5)C3=O)c2C1 [Compound 26] | > 30% |
| CCN1CCc2c(-c3cc(F)ccc3OC)ccc(N3C(=O)CNC3=O)c2C1 [Compound 22] | < 20% |
| CCN1CCc2c(-c3cccnc3)cc(C#N)c(N)c2C1 [Compound 54] | > 50% |
| CCN1CCc2c(-c3ccccc3)cc(-c3ccc(C)nn3)c(N)c2C1 [Compound 39] | 20 to 30% |
| COc1ccc(F)cc1-c1cc(-c2noc(=O)[nH]2)c(N)c2c1CCN(C)C2 [Compound 5, 3-[8-Amino-5-(5-fluoro-2-methoxy-phenyl)-2-methyl-1,2,3,4-tetrahydro-isoquinolin-7-yl]-4H-[1,2,4]oxadiazol-5-one] | < 20% |
